Source: US9266883B2, “Ring-fused bicyclic pyridyl derivatives as FGFR4 inhibitors” (Novartis AG, priority 2013, dated 2016)

Assays:
[1] = target: FGFR1 (407-822) (Homo sapiens (Human), UniProt P11362); experiment: In vitro biochemical assay for FGFR1
[2] = target: FGFR3 (411-806) (Homo sapiens (Human), UniProt P22607); experiment: In vitro biochemical assay for FGFR3
[3] = target: FGFR2 (406-821) (Homo sapiens (Human), UniProt P21802); experiment: In vitro biochemical assay for FGFR2
[4] = target: Tel-FGFR4 (Homo sapiens (Human), UniProt P22455); experiment: In vitro cellular kinase assay for FGFR4 (BaF3-Tel-FGFR4 cells, MSD capture ELISA of tyrosine phosphorylation); assay type: cell-based; settings: BaF3-Tel-FGFR4 cells, 1 hour incubation; read-out: Cellular BaF3 FGFR4 IC50
Tel-FGFR4, sequence (P22455 other isoform, or with tags, fused parts or gaps): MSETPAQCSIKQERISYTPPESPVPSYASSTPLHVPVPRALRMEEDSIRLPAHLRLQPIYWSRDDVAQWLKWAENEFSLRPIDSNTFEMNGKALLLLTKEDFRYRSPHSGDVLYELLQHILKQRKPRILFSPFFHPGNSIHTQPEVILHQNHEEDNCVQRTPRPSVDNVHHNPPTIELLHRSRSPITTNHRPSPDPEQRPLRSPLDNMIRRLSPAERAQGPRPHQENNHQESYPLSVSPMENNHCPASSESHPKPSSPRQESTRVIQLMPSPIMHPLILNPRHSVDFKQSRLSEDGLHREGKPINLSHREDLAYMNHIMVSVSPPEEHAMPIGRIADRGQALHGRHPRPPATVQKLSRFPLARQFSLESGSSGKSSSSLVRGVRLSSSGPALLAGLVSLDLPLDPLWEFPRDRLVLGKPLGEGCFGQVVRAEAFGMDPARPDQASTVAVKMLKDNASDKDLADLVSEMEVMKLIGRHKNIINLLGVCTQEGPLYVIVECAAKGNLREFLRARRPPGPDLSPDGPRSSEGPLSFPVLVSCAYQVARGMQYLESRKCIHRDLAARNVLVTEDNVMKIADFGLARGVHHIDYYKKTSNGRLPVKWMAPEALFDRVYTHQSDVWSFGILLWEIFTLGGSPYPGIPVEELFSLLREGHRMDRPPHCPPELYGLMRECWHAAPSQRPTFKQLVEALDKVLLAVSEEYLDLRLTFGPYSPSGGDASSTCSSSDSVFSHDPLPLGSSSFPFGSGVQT

[5] = target: FGFR4 (GST-FGFR4(388-802)) (Homo sapiens (Human), UniProt P22455); experiment: In-vitro biochemical kinase assay for FGFR4 (Caliper microfluidic mobility shift); settings: read-out: Biochemical FGFR4 IC50
FGFR4 (GST-FGFR4(388-802)), sequence (P22455 388-802): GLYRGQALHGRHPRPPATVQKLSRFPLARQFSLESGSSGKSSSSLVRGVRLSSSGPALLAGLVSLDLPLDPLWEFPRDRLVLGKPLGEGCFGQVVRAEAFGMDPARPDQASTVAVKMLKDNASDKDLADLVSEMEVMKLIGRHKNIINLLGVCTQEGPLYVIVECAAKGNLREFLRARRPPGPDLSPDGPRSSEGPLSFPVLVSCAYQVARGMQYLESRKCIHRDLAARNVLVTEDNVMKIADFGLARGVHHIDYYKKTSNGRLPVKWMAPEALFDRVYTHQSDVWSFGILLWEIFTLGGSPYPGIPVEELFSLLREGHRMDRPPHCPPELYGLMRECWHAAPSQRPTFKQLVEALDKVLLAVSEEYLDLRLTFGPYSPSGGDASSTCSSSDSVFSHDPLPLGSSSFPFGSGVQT

[6] = system: HuH-7 hepatocellular carcinoma cells; experiment: CellTiter Glo (CTG) Assay; settings: Homo sapiens, Huh-7, 72 h, read-out: HUH7 proliferation (nM) CTG

FGFR2 (406-821), sequence (P21802 406-821): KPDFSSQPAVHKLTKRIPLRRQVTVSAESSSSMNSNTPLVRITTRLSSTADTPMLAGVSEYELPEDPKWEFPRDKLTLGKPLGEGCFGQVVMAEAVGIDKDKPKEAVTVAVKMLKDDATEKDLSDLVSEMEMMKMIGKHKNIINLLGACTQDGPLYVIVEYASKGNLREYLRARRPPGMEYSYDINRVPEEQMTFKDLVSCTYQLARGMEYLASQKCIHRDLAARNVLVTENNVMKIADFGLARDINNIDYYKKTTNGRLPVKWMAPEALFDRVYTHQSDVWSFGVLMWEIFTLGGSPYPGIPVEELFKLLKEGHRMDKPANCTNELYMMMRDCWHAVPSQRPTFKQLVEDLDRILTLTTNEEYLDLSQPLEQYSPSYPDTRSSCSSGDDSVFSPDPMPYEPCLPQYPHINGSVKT
FGFR1 (407-822), sequence (P11362 407-822): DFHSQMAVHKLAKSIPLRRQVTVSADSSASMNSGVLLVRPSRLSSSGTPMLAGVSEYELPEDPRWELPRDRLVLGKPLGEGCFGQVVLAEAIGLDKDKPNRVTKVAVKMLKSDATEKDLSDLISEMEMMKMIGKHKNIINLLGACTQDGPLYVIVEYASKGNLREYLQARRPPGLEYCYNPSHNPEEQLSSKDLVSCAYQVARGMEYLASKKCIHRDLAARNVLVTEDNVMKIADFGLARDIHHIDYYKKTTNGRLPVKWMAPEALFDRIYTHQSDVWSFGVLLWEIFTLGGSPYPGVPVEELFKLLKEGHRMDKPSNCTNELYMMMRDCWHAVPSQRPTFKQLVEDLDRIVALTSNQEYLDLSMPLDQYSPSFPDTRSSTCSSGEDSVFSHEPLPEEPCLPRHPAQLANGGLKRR
FGFR3 (411-806), sequence (P22607 411-806): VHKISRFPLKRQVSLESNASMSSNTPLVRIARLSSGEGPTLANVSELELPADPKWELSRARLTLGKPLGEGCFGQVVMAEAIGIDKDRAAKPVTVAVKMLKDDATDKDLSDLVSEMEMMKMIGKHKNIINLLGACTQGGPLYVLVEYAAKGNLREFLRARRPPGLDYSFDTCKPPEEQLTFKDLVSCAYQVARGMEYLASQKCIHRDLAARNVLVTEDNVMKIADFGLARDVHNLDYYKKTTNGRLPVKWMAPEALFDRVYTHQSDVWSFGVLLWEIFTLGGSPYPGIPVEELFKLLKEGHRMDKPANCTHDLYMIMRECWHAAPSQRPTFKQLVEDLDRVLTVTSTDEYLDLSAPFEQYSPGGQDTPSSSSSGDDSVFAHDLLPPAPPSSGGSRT

Row | Compound | IC50 [1] [µM] | IC50 [2] [µM] | IC50 [3] [µM] | IC50 [4] [µM] | IC50 [5] [µM] | IC50 [6] [nM]
1 | COCCOc1cc(NC(=O)N2CCCc3ccc(C=O)nc32)ncc1C#N [Example 23, N-(5-cyano-4-(2-methoxyethoxyl)pyridin-2-yl)-7-formyl-3,4-dihydro-1,8-naphthyridine-1(2H)-carboxamide] | > 10 | > 10 | > 10 |  |  | 
2 | N#Cc1ccc(NC(=O)N2CCCc3ccc(C=O)nc32)nc1 [Example 3, N-(5-cyanopyridin-2-yl)-7-formyl-3,4-dihydro-1,8-naphthyridine-1(2H)-carboxamide] | > 10 | > 10 | > 10 |  |  | 
3 | CN(C)CCOc1cc(NC(=O)N2CCCc3ccc(C=O)nc32)ncc1C#N [Example 38, N-(5-cyano-4-(2-(dimethylamino)ethoxy)pyridin-2-yl)-7-formyl-3,4-dihydro-1,8-naphthyridine-1(2H)-carboxamide] | > 10 | > 10 | > 10 |  |  | 
4 | COCCNc1cc(NC(=O)N2CCCc3cc(CO)c(C=O)nc32)ncc1C#N [Example 80, N-(5-cyano-4-((2-methoxyethyl)amino)pyridin-2-yl)-7-formyl-6-(hydroxymethyl)-3,4-dihydro-1,8-naphthyridine-1(2H)-carboxamide] | > 10 | > 10 | > 10 |  |  | 
5 | COc1cc(NC(=O)N2CCCc3ccc(C=O)nc32)ncc1C#N [Example 13, N-(5-cyano-4-methoxypyridin-2-yl)-7-formyl-3,4-dihydro-1,8-naphthyridine-1(2H)-carboxamide] | > 10 | > 10 | > 10 |  |  | 
6 | N#Cc1cnc(NC(=O)N2CCCc3cc(CO)c(C=O)nc32)cc1O[C@@H]1CCOC1 [Example 49, (R)-N-(5-cyano-4-((tetrahydrofuran-3-yl)oxy)pyridin-2-yl)-7-formyl-6-(hydroxymethyl)-3,4-dihydro-1,8-naphthyridine-1(2H)-carboxamide] | > 10 | > 10 | > 10 |  |  | 
7 | CN1CC[C@@H](Oc2cc(NC(=O)N3CCCc4cc(CO)c(C=O)nc43)ncc2C#N)C1 [Example 54, (R)-N-(5-cyano-4-((1-methylpyrrolidin-3-yl)oxy)pyridin-2-yl)-7-formyl-6-(hydroxymethyl)-3,4-dihydro-1,8-naphthyridine-1(2H)-carboxamide] | > 10 | > 10 | > 10 |  |  | 
8 | N#Cc1cnc(NC(=O)N2CCCc3ccc(C=O)nc32)nc1 [Example 8, N-(5-cyanopyrimidin-2-yl)-7-formyl-3,4-dihydro-1,8-naphthyridine-1(2H)-carboxamide] | > 10 | > 10 | > 10 |  |  | 
9 | COC(C)CNc1cc(NC(=O)N2CCCc3cc(CO)c(C=O)nc32)ncc1C#N (racemic) [Example 57, N-(5-cyano-4-((2-methoxypropyl)amino)pyridin-2-yl)-7-formyl-6-(hydroxymethyl)-3,4-dihydro-1,8-naphthyridine-1(2H)-carboxamide] |  |  |  | 0.0113 | 0.0039 | 436
10 | COCCNc1cc(NC(=O)N2CCCc3cc(CN(CCN(C)C)S(C)(=O)=O)c(C=O)nc32)ncc1C#N [Example 144, N-(5-cyano-4-((2-methoxyethyl)amino)pyridin-2-yl)-6-((N-(2-(dimethylamino)ethyl)methylsulfonamido)methyl)-7-formyl-3,4-dihydro-1,8-naphthyridine-1(2H)-carboxamide] |  |  |  | 0.0185 | 0.0023 | 504
11 | COCCNc1cc(NC(=O)N2CCCc3cc(CN4CC[C@H](O)C4=O)c(C=O)nc32)ncc1C#N [Example 100, (S)-N-(5-cyano-4-((2-methoxyethyl)amino)pyridin-2-yl)-7-formyl-6-((3-hydroxy-2-oxopyrrolidin-1-yl)methyl)-3,4-dihydro-1,8-naphthyridine-1(2H)-carboxamide] |  |  |  | 0.0053 | 0.0009 | 23.5
12 | COCCNc1cc(NC(=O)N2CCCc3cc(C4CCOCC4)c(C=O)nc32)ncc1C#N [Example 249, N-(5-cyano-4-((2-methoxyethyl)amino)pyridin-2-yl)-7-formyl-6-(tetrahydro-2H-pyran-4-yl)-3,4-dihydro-1,8-naphthyridine-1(2H)-carboxamide] | > 10 |  | > 10 |  |  | 222
13 | CC(C)n1cnc2cnc(NC(=O)N3CCCc4cc(CN5CCCC5=O)c(C=O)nc43)cc21 [Example 220, 7-formyl-N-(1-isopropyl-1H-imidazo[4,5-c]pyridin-6-yl)-6-((2-oxopyrrolidin-1-yl)methyl)-3,4-dihydro-1,8-naphthyridine-1(2H)-carboxamide] |  |  |  | 0.094 | 0.096 | > 3000
14 | COCCNc1cc(NC(=O)N2CCCc3cc(CN4CC[C@@H](O)C4=O)c(C=O)nc32)ncc1C#N [Example 105, (R)-N-(5-cyano-4-((2-methoxyethyl)amino)pyridin-2-yl)-7-formyl-6-((3-hydroxy-2-oxopyrrolidin-1-yl)methyl)-3,4-dihydro-1,8-naphthyridine-1(2H)-carboxamide] |  |  |  | 0.0062 | 0.0008 | 32.5
15 | CC(=O)N(C)Cc1cc2c(nc1C=O)N(C(=O)Nc1cc(NCCOC(F)(F)F)c(C#N)cn1)CCC2 [Example 188, N-(5-cyano-4-((2-(trifluoromethoxy)ethyl)amino)pyridin-2-yl)-7-formyl-6-((N-methylacetamido)methyl)-3,4-dihydro-1,8-naphthyridine-1(2H)-carboxamide] |  |  |  | 0.0052 | 0.0004 | 59
16 | COCCNc1cc(NC(=O)N2CCCc3cc(N4CCOC4=O)c(C=O)nc32)ncc1C#N [Example 263, N-(5-cyano-4-((2-methoxyethyl)amino)pyridin-2-yl)-7-formyl-6-(2-oxooxazolidin-3-yl)-3,4-dihydro-1,8-naphthyridine-1(2H)-carboxamide] |  |  |  | 0.011 | 0.0002 | 894
17 | N#Cc1cnc(NC(=O)N2CCCc3cc(CN4CCCC4=O)c(C=O)nc32)cc1OCC1CCNC(=O)C1 (racemic) [Example 225, N-(5-cyano-4-((2-oxopiperidin-4-yl)methoxy)pyridin-2-yl)-7-formyl-6-((2-oxopyrrolidin-1-yl)methyl)-3,4-dihydro-1,8-naphthyridine-1(2H)-carboxamide] |  |  |  | 0.0765 | 0.0057 | 1000
18 | N#Cc1cnc(NC(=O)N2CCCc3cc(CO)c(C=O)nc32)cc1OCC1CCCCO1 (racemic) [Example 44, N-(5-cyano-4-((tetrahydro-2H-pyran-2-yl)methoxy)pyridin-2-yl)-7-formyl-6-(hydroxymethyl)-3,4-dihydro-1,8-naphthyridine-1(2H)-carboxamide] |  |  |  | 0.0313 | 0.0081 | 1230
19 | COCCNc1cc(NC(=O)N2CCCc3cc(-n4ccnc4)c(C=O)nc32)ncc1C#N [Example 254, N-(5-cyano-4-((2-methoxyethyl)amino)pyridin-2-yl)-7-formyl-6-(1H-imidazol-1-yl)-3,4-dihydro-1,8-naphthyridine-1(2H)-carboxamide] |  |  |  | 0.0445 | 0.0011 | 1160
20 | CCc1cc(NC(=O)N2CCCc3cc(C=O)c(C=O)nc32)ncc1C#N [Example 106, N-(5-cyano-4-ethylpyridin-2-yl)-6,7-diformyl-3,4-dihydro-1,8-naphthyridine-1(2H)-carboxamide] |  |  |  | 2.53 | 0.095 | > 3000
